From patent publication US10975087B2, “Solid forms of tetrahydropyranyl amino-pyrrolopyrimidinone compounds” (ArQule, Inc., priority 2018, dated 2021)
Values joined by “and” are separate entries in the source; they are usually repeats but may differ in a detail not shown here. Equal entries are not always repeated. “Also recorded” adds a separate entry of the source.

Experiments:
Format in all cases: physicochemical
[1] = Accelerated storage conditions (75% RH/40° C. for 72 hours), XRPD
[2] = Dynamic vapor sorption (DVS); settings: for Post-DVS XRPD analysis (form): after exposure to elevated humidity; for moisture uptake by DVS: at 90% RH
Method: Approximately 10-20 mg of sample was placed into a mesh vapor sorption balance pan and loaded into a DVS-1 dynamic vapor sorption balance by Surface Measurement Systems. […] After completion of the sorption cycle, the sample was dried using the same procedure to 0% RH and then a second sorption cycle back to 40% RH. Two cycles were performed. The weight change during the sorption/desorption cycles were plotted, allowing for the hygroscopic nature of the sample to be determined. XRPD analysis may be then carried out on any solid retained.

[3] = Variable temperature X-ray powder diffraction (VT-XRPD)
Method: VT-XRPD analysis was carried out on a Philips X'Pert Pro Multipurpose diffractometer. The samples were scanned between 4 and 35.99° 2θ using Cu K radiation (α1 λ=1.54060 Å; α2=1.54443 Å; β=1.39225 Å; α1:α2 ratio=0.5) running in Bragg-Brentano geometry (step size 0.008° 2θ) using 40 kV/40 mA generator settings. Measurements were performed at each step of the temperature profile: 30° C. initial scan, 150° C., 200° C., 210° C., 230° C., and 30° C., final scan.

[4] = Karl Fischer coulometric titration (KF) water content
Method: Approximately 10-30 mg of solid material was accurately weighed into a vial. The solid was then manually introduced into the titration cell of a Mettler Toledo C30 Compact Titrator. The vial was back-weighed after the addition of the solid and the weight of the added solid entered on the instrument. Titration was initiated once the sample had fully dissolved in the cell. The water content was calculated automatically by the instrument as a percentage and the data printed.

[5] = Salt disproportionation studies (slurry in deionized water); settings: for XRPD after salt disproportionation study, 48 hours / measured pH after slurrying in water: 48 hours
Method: Samples of salts described herein were prepared for disproportionation studies. Approximately 15 mg of the salt material was suspended in 4 mL of deionized water at ambient temperature (ca. 22° C.). The slurry of the salt was shaken at ambient temperature and analyzed after: 1 h, 24 h, and 48 h. Each sample was filtered using a centrifuge filter. The solid was analyzed by XRPD. pH measurements were performed for the solution (three pH measurements were carried out for each sample and the average pH was calculated).

[6] = 7 day stability testing, open vials at 40° C./75% RH, ambient and 80° C.; settings: for XRPD analysis after storage for 1 week: 80° C., and ambient temperature; for Purity after 1 week (%) / area % purity and form changes after 1 week: open vials; for T = 0 purity (%): T = 0, before storage; for area % purity and form changes after 1 week: ambient, 40° C./75% RH and 80° C.
[7] = Thermodynamic solubility pH measurements; settings: for XRPD after thermodynamic solubility studies: respective buffer; for Solubility (mg/mL): Input Solvent pH 6.5, 25° C.
Method: After 2 hours at 25° C., the pH of each slurry was measured and the pH was adjusted, where required. After 24 hours at 25° C., the pH of each slurry was measured and the pH was adjusted, where required. After 48 hours at 25° C., the slurries were separated by centrifugation. The solids were analyzed by XRPD, while the pH of the separated liquors were also measured.

[8] = Hydration studies in water/acetone mixtures; settings: for Hydration study result (solid by XRPD): 5 days; for solid obtained in hydration study: the other experiments (remaining water contents/temperatures)
Method: Hydration experiments were performed at 25° C. and 50° C. in water/acetone mixtures with the following water content (volume %): 2%, 5%, and 20%. The samples were prepared by adding 250 μL of the water/acetone mixture to 15 mg of the salt sample. The samples were stirred at 25° C. or at 50° C. After 2 days, the samples were inspected for the presence of solid. If solid was not observed, additional salt material was added to the dissolved samples. Samples were stirred for an additional 3 days. After 5 days, samples were filtered and the solid obtained was analyzed by XRPD.

[9] = 2% and 5% water in acetone, 25° C.
[10] = 2% water in water/acetone, 25° C., Form = form of the same salt
[11] = 2% water in water/acetone, 50° C., Form = form of the same salt
[12] = 5% water in water/acetone, 25° C., Form = form of the same salt
[13] = 5% water in water/acetone, 50° C., Form = form of the same salt
[14] = 20% water in water/acetone, 25° C.
[15] = 20% water in water/acetone, 50° C.
[16] = Input Solvent Water, 25° C., 48 hours
[17] = Input Solvent pH 1, 25° C., 48 hours
[18] = Input Solvent pH 4.5, 25° C., 48 hours

O=C(O)/C=C\C(=O)O.O=C(c1ccc(Oc2ccccc2)cc1Cl)c1c[nH]c2ncnc(N[C@@H]3CC[C@@H](CO)OC3)c12 [maleate Form 1]
stability under accelerated storage conditions (XRPD) [1]: stable

O=C(c1ccc(Oc2ccccc2)cc1Cl)c1c[nH]c2ncnc(N[C@@H]3CC[C@@H](CO)OC3)c12 [Form 10, (2-chloro-4-phenoxyphenyl)(4-(((3R,6S)-6-(hydroxymethyl)tetrahydro-2H-pyran-3-yl)amino)-7H-pyrrolo[2,3-d]pyrimidin-5-yl)methanone]
hygroscopic nature by DVS [2]: slightly hygroscopic
Post-DVS XRPD analysis (form) [2]: no change in form, but reduction in crystallinity
moisture uptake by DVS [2]: 0.94%
VT-XRPD form upon heating to 150° C. ([3]; 150° C.): persisted upon heating to 150 °C with poor crystallinity
VT-XRPD form at 230° C. ([3]; 230° C.): became amorphous
Identity ([3]; VT-XRPD Run 1, Temp 30° C.): Form 10
Identity ([3]; VT-XRPD Run 2, Temp 150° C.): Form 10
Identity ([3]; VT-XRPD Run 3, Temp 200° C., two forms printed in two cells): Form 10; also recorded: Form 12
Identity ([3]; VT-XRPD Run 4, Temp 210° C.): Form 12
Identity ([3]; VT-XRPD Run 5, Temp 230° C.): Amorphous
Identity ([3]; VT-XRPD Run 6, Temp 30° C.): Amorphous
VT-XRPD form between ca. 200° C. and ca. 210° C. ([3]; ca. 200° C. to ca. 210° C.): converted to Form 12
VT-XRPD form upon cooling to 30° C. ([3]; cooling to 30° C.): remained amorphous
KF moisture (water) content [4]: 1.48%
KF water content in equivalents [4]: 0.4 equivalents

O=C(O)C(=O)O.O=C(c1ccc(Oc2ccccc2)cc1Cl)c1c[nH]c2ncnc(N[C@@H]3CC[C@@H](CO)OC3)c12 [oxalate Form 3]
stability under accelerated storage conditions (XRPD) [1]: stable

O=S(=O)(O)c1cccc2c(S(=O)(=O)O)cccc12
stability under accelerated storage conditions (XRPD) [1]: decreased crystallinity

Cl.O=C(c1ccc(Oc2ccccc2)cc1Cl)c1c[nH]c2ncnc(N[C@@H]3CC[C@@H](CO)OC3)c12 [hydrochloride Form 2]
stability under accelerated storage conditions (XRPD) [1]: decreased crystallinity

Br.O=C(c1ccc(Oc2ccccc2)cc1Cl)c1c[nH]c2ncnc(N[C@@H]3CC[C@@H](CO)OC3)c12 [hydrobromide Form 1]
XRPD after salt disproportionation study, 48 hours [5]: no change from the input material
stability under accelerated storage conditions (XRPD) [1]: stable
Post-DVS XRPD analysis (form) [2]: no change in form from the input material
moisture uptake by DVS [2]: ca. 7.0%
XRPD analysis after storage for 1 week ([6]; 40° C./75% RH): no change in form from the input material
XRPD after thermodynamic solubility studies ([7]; 25° C., 48 hours): no change from the input material
solid obtained in hydration study (XRPD) [8, 9]: recovered
solid obtained in hydration study (XRPD) ([8]; 2% water in acetone, 50° C.): potentially new form
Hydration study result (solid by XRPD) [8, 10]: Form 1
Hydration study result (solid by XRPD) [8, 11]: low crystallinity
Hydration study result (solid by XRPD) [8, 12]: Form 1
Hydration study result (solid by XRPD) [8, 13]: Gum
Hydration study result (solid by XRPD) [8, 14]: Gum
Hydration study result (solid by XRPD) [8, 15]: Gum
solid obtained in hydration study [8]: gum
KF moisture (water) content [4]: 7.39%

Br.O=C(c1ccc(Oc2ccccc2)cc1Cl)c1c[nH]c2ncnc(N[C@@H]3CC[C@@H](CO)OC3)c12 [hydrobromide Form 2]
XRPD after salt disproportionation study, 24 hours [5]: partially crystalline
XRPD after salt disproportionation study, 48 hours [5]: staying hydrobromide Form 2
measured pH after slurrying in water [5]: 1.86
Post-DVS XRPD analysis (form) [2]: no change in form from the input material
moisture uptake by DVS [2]: ca. 2.4%
XRPD analysis after storage for 1 week ([6]; 40° C./75% RH): no change in form from the input material
pH - 2 Hours at 25° C. ([7]; Input Solvent Water): 1.86
pH - 24 Hours at 25° C. ([7]; Input Solvent Water): 1.34
pH - 48 Hours at 25° C. ([7]; Input Solvent Water): 1.86
Solubility [7, 16]: 0.5 mg/mL
pH - 2 Hours at 25° C. ([7]; Input Solvent pH 1): 0.27
pH - 24 Hours at 25° C. ([7]; Input Solvent pH 1): 0.40
pH - 48 Hours at 25° C. ([7]; Input Solvent pH 1): 0.78
Solubility [7, 17]: <0.1 mg/mL
pH - 2 Hours at 25° C. ([7]; Input Solvent pH 4.5): 3.97
pH - 24 Hours at 25° C. ([7]; Input Solvent pH 4.5): 3.62
pH - 48 Hours at 25° C. ([7]; Input Solvent pH 4.5): 3.84
Solubility [7, 18]: <0.1 mg/mL
pH - 2 Hours at 25° C. ([7]; Input Solvent pH 6.5): 3.53
pH - 24 Hours at 25° C. ([7]; Input Solvent pH 6.5): 2.61
pH - 48 Hours at 25° C. ([7]; Input Solvent pH 6.5): 3.44
Solubility (mg/mL) ([7]; 48 hours): <LOD
XRPD after thermodynamic solubility studies, pH 1 ([7]; pH 1, 25° C., 48 hours): hydrobromide Form 1 and 2 are observed
XRPD after thermodynamic solubility studies, water and pH 4.5 and 6.5 ([7]; water and pH 4.5 and 6.5, 25° C., 48 hours): poorly crystalline
KF moisture (water) content [4]: 1.97%

O=C(c1ccc(Oc2ccccc2)cc1Cl)c1c[nH]c2ncnc(N[C@@H]3CC[C@@H](CO)OC3)c12.O=S(=O)(O)c1ccccc1 [besylate Form 1]
XRPD after salt disproportionation study, 24 hours [5]: gel-like, amorphous solid
XRPD after salt disproportionation study, 48 hours [5]: staying partially crystalline; also recorded: no change from the input material
stability under accelerated storage conditions (XRPD) [1]: stable
Post-DVS XRPD analysis (form) [2]: no change in form from the input material
XRPD analysis after storage for 1 week ([6]; 40° C./75% RH): no change in form from the input material
Purity after 1 week (%) ([6]; 40° C./75% RH): 97.8%
Purity after 1 week (%) ([6]; 80° C.): 97.4%
Purity after 1 week (%) ([6]; Ambient): 97.4%
T = 0 purity (%) [6]: 97.4%
area % purity and form changes after 1 week [6]: no decrease in area % purity or form changes
pH - 2 Hours at 25° C. ([7]; Input Solvent Water): 1.96
pH - 24 Hours at 25° C. ([7]; Input Solvent Water): 1.68
pH - 48 Hours at 25° C. ([7]; Input Solvent Water): 1.84
Solubility [7, 16]: 0.2 mg/mL
pH - 2 Hours at 25° C. ([7]; Input Solvent pH 1): 0.19
pH - 24 Hours at 25° C. ([7]; Input Solvent pH 1): 0.37
pH - 48 Hours at 25° C. ([7]; Input Solvent pH 1): 1.07
Solubility [7, 17]: 0.2 mg/mL
pH - 2 Hours at 25° C. ([7]; Input Solvent pH 4.5): 4.20
pH - 24 Hours at 25° C. ([7]; Input Solvent pH 4.5): 3.80
pH - 48 Hours at 25° C. ([7]; Input Solvent pH 4.5): 3.82
Solubility [7, 18]: <0.1 mg/mL
pH - 2 Hours at 25° C. ([7]; Input Solvent pH 6.5): 3.31
pH - 24 Hours at 25° C. ([7]; Input Solvent pH 6.5): 2.51
pH - 48 Hours at 25° C. ([7]; Input Solvent pH 6.5): 3.26
Solubility (mg/mL) ([7]; 48 hours): <LOD
XRPD after thermodynamic solubility studies ([7]; 25° C., 48 hours): poorly crystalline; also recorded: no change from the input material
solid obtained in hydration study (XRPD) [8, 9]: recovered
Hydration study result (solid by XRPD) [8, 10]: Form 1
Hydration study result (solid by XRPD) [8, 11]: Form 1
Hydration study result (solid by XRPD) [8, 12]: Gum
Hydration study result (solid by XRPD) [8, 13]: Gum
Hydration study result (solid by XRPD) [8, 14]: Gum
Hydration study result (solid by XRPD) [8, 15]: Gum
solid obtained in hydration study [8]: gum
KF moisture (water) content [4]: 0.24% and 2.0%

O=C(c1ccc(Oc2ccccc2)cc1Cl)c1c[nH]c2ncnc(N[C@@H]3CC[C@@H](CO)OC3)c12.O=S(=O)(O)CCS(=O)(=O)O [edisylate Form 1]
XRPD after salt disproportionation study, 48 hours [5]: no change from the input material
measured pH after slurrying in water [5]: 2.32
Post-DVS XRPD analysis (form) [2]: no change in form from the input material
moisture uptake by DVS [2]: ca. 4.6%
XRPD analysis after storage for 1 week ([6]; 40° C./75% RH): no change in form from the input material
Purity after 1 week (%) ([6]; 40° C./75% RH): 98.1%
Purity after 1 week (%) ([6]; 80° C.): 97.5%
Purity after 1 week (%) ([6]; Ambient): 97.9%
T = 0 purity (%) [6]: 97.9%
area % purity and form changes after 1 week [6]: no decrease in area % purity or form changes
XRPD after thermodynamic solubility studies ([7]; 25° C., 48 hours): no change from the input material
KF moisture (water) content [4]: 0.94%
